Assay results as given in patent US12545653B2, “Compound as PPAR agonist and application thereof” (USA Elixiria Biotech Inc., priority 2019, dated 2026).
“And” between values parts separate entries of the source, which are not always exact repeats. Identical values can stand only once.

Tests used:
PPARγ = target: T1, PPARγ (Homo sapiens, UniProt P37231); assay: In vitro transcriptional activity of PPARγ gene (PPRE-luciferase reporter, HEK 293 T cells); assay type: cell-based; conditions: HEK 293 T cells transfected with PPARγ expression and PPRE-luc plasmids, 21 hours; read-out: EC50 of PPARγ gene activation
T1 construct: expressed in transfected cells; host or cells: HEK 293 T cells
T1 sequence (P37231 1-505): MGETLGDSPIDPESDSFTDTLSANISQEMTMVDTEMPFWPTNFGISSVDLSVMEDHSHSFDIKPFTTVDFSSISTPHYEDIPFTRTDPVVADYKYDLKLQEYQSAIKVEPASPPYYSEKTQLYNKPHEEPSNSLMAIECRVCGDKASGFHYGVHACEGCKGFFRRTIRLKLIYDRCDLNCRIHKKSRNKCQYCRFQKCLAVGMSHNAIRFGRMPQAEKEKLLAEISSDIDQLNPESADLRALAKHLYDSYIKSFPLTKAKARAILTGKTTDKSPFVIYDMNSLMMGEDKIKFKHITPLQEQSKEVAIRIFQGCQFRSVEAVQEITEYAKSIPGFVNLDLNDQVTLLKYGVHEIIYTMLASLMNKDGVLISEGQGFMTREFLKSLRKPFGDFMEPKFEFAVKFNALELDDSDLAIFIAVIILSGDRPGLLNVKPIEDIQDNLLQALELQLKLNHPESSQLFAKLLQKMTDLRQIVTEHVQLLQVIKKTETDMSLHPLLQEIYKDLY
From the text: In this experiment, the PPARγ gene was used as target gene to detect the in vitro transcription activity of the compounds. The compounds of interest were detected was first dissolved with dimethyl sulfoxide (DMSO). […] First two plasmids were constructed: PPARγ protein expression plasmid and luciferase reporter plasmid. They are both from the lentiviral plasmid pLV-CMVIE-ZsGreen-Puro, whose DNA sequence contains the cytomegalovirus immediate early (CMVie) promoter, ZsGreen and Puro dual reporter. The PPARγ expression plasmid pLV-CMVIE-PPAR[…]-ZsGreen-Puro was constructed by cloning full-length coding sequences of the pertinent receptors into pHBLV-CMVIE-ZsGreen-Puro vector. To construct the luciferase (luc) reporter plasmid pLV-PPRE-luc-ZsGreen-Puro, the CMVie promoter in plasmid pHBLV-CMVIE-ZsGreenPuro was first replaced by a peroxisome proliferator responsive element (PPRE) containing fragments comprised the nucleotide sequence 50-[…], repeated four times in tandem, to generate a new plasmid, at a multiple cloning site of which the luc gene was then inserted. […] The compounds used for screening are representatives for compounds listed in Table 2, and Tables 3 of the present invention. […] Cells were distributed in 10-cm tissue culture plates at a density of 5.5 million cells per plate, and then transfected with the luciferase reporter plasmid (6 nanogram/plate) and the PPARγ expression plasmid (18 nanogram/plate). Cells were cultured for 6 hours. […] Then the cells were distributed in 96-well plates at a density of 20,000 cells per well. After incubation for 6 h, compounds or control with different concentration were placed into each well, resulting in the finical concentration of […] with each concentration in triplicate. Twenty-one hours later, promoter activation was detected by the addition of SteadyLite (PerkinElmer, Waltham, MA) and GloMax 96 Microplate Luminometer (Promega, Madison, WI). The amount of Luminometer emitted from each well is positively correlated with the expression of PPARγ gene. A three-parameter Sigmoid function curve was used to fit the obtained data. The abscissa represents the logarithmic value of the concentration, and the ordinate represents the percentage of PPARγ gene activation relative to those of the control. […] In Statistical analysis, the coefficient of variation is used to measure the robustness and repeatability of the experiment. […] The difference is significant with P<0.05. EC50 is a parameter of its activity.

klotho gene = assay: In vivo brain transcriptional activity of klotho gene (RT-PCR of brain mRNA); set-up: species or system mouse; conditions: 10 mg/kg body weight/day tail vein; for mRNA level of klotho gene in the brain of the mouse relative to vehicle control group: after 10 days of continuous injection; for fold induction at 10 mg/kg: Mus musculus, iv, 720 h, after 30 days of continuous injection, read-out: mRNA level of klotho gene in the brain of the mouse relative to vehicle control group
Procedure: To verify this hypothesis, adult male Kunming mice were used in the experiments. […] The injection volume is 8 ml/kg body weight. Dimethyl sulfoxide (DMSO) was used as a vehicle control of the compounds. […] The RNA was then reverse-transcribed to the cDNA, and quantified by SYBR Green fluorescence quantitative PCR kit (HaiGene) and a quantitative PCR system (Bio-Rad Min-Opticon Type 2) were used for real-time fluorescent quantitative polymerase chain reaction (RT-PCR). The mouse gene primers were design as follows: • KLOTHO-forward 5′-[…]-3′; • LOTHO-reverse 5′-[…]-3′; • GAPDH-forward 5′-[…]-3′; • GAPDH-reverse 5′-[…]-3′.
Data analysis was performed using the 2^−ΔΔct method. Semi-quantitative values of gene expression were then normalized by the control mean.

klotho gene promoter = assay: In vitro transcriptional activity of klotho gene (KL-Luc-3 luciferase cell line); assay type: cell-based; conditions: 16 h, KL-Luc-3 cells, 16 hours incubation
From the text: The activities of these carbonyl-containing cyclic compounds are indicated by the increased expression of klotho gene. […] The present invention retains the DNA fragment of the klotho gene promoter, but replaces the DNA sequence of the coding region of the klotho gene with those of luciferase, so that the degree of activation of the klotho gene promoter and the expression of the klotho gene will be sensitively determined by detecting the luciferase luminescence signal.
Klotho is an important downstream gene of PPARγ pathway. The following experiments tested the properties of the compounds in Table 2 and 3 to activate the klotho gene in vitro. First, a stable cell line, KL-Luc, was constructed. The klotho gene carried by the cell line retained the DNA sequence of klotho gene promoter, but the coding sequence of the klotho gene was replaced with luciferase. KL-Luc fragment includes a promoter sequence of the klotho gene (a DNA region of 18,000 base pairs in length upstream of the transcription start site of the gene) and a luciferase-encoding sequence. To construct the KL-Luc sequence containing lentiviral vector, the KL-Luc fragment was cloned into the pDONR vector using BP recombinase, so that the target fragment had attL recombination sites on both sides. Then the KL-Luc fragment was transferred from the pDONR vector to a lentiviral vector (without exogenous promoter) pLenti6/BLOCK-IT-DEST. The constructed lentiviral vector of the target fragment was then transfected into HEK293T cells, and then the KL-Luc gene lentiviral expression vector and the […] were co-transfected into HEK293T cells to perform lentiviral packaging. The virus was harvested, and virus titer was calculated. And the lentivirus was used to infect target cells. The stable strains were screened by adding drugs. Finally, monoclonal cell lines were selected from polyclonal cells by cell cloning. The effective luciferase expression of each monoclonal cell line was determined by quantitative polymerase chain reaction (qPCR). The inventors chose a third monoclonal cell line (KL-Luc-3) to continue the compound screening. The compounds of interest were the compounds in Table 2 and 3. At the same time, rosiglitazone and pioglitazone were used as a control. KL-Luc-3 cells were divided into 96-well plates at 5000 cells in 80 microL per well, cultured in a 37° C. carbon dioxide incubator with serum-free Duchenne's Modified Eagle's Medium (DMEM) for 6 hours, and then the compounds were added to a final concentration of 0, 0.1, 0.3, 1, 3, 10, 30 micromole/L, with each concentration in triplicate. After 16 hours of incubation, the SteadyLite (PerkinElmer, Waltham, MA) and the GloMax Microplate Luminometer (Promega, USA) were used for quantitation of luciferase activity. The amount of luminescence emitted from each well is positively related to the transcriptional activity of the klotho promoter. A three-parameter Sigmoid function curve was used to fit the obtained data. The abscissa represents the logarithmic value of the concentration, and the ordinate represents the percentage of the activity relative to those of the control. […] In Statistical analysis, the coefficient of variation is used to measure the robustness and repeatability of the experiment. […] The difference is significant with P<0.05. EC50 is a parameter of its activity. The lower the EC50 value, the higher the activity of corresponding compound.

APP/PS1 transgenic mice = assay: Alzheimer's disease model, eight-arm radial water maze and brain gene expression; assay type: in vivo, mouse; conditions: 30 days in food, 10 mg/kg body weight/day (donepezil 3 mg/kg body weight/day), 5 on the first day
From the text: A common indicator used in academia in memory and dementia experiments is the number of errors in the water maze (reference memory). More errors mean poorer memory. On the last 3 days of dosing, eight-arm radial water maze was used by experimenters who were blind to drug treatment. As a classic experimental instrument, to detect slight deficits in learning and memory, the eight-arm water maze is more sensitive than not only Morris maze, but also Six-arm radial water maze. For details, see reference 8: Alamed J et al. Two-day radial-arm water maze learning and memory task; robust resolution of amyloid-related memory deficits in transgenic mice [J]. […] This experiment uses an eight-arm water maze built in accordance with the above literature. The eight-arm water maze is placed in a basin with an interior diameter of 102 cm. Each arm measures 30 cm long, 14.5 cm wide, and 40 cm high. Escape platform is located at the end of one of the arms. In the reference memory version of the task described here, the goal arm is held constant for all trials, with a different start arm on successive trials. On day one, mice received 12 trials, with trials alternating between visible and hidden platform. On day 2 and 3, mice received 12 additional trials but the platform was kept hidden throughout the trials. Entry into an incorrect arm was scored as a spatial reference error. Errors were averaged into three trial blocks, with four blocks per day, e.g., the first block (the 1st to 3rd trial), the second block (the 4th to 6th trial), and so on. […]. The line charts were made with the number of blocks as the abscissa and the average of the number of errors as the ordinate. At the end of the experiments, the cerebral cortex and hippocampus of the mice were removed, RNA was extracted, and the expression of many genes was analyzed by semi-quantitative RT-PCR. […] The difference is significant with P<0.05.

db−/db− mice = assay: Diabetic peripheral neuropathy model, Von Frey threshold, sciatic nerve ROS and MDA; assay type: in vivo, mouse; conditions: in food 10 mg/kg body weight/day (pregabalin 30 mg/kg body weight/day); for level of MDA in the sciatic nerve after 10 week treatment / level of mitochondrial ROS in the sciatic nerve after 10 week treatment: compared with healthy control group; for mechanical pain threshold after 10 week treatment: compared with normal control group
Procedure: Male 5-6 week-old male db^−/db^− mice were used in the experiment, and their normoglycemic heterozygous littermates were used as controls. db^−/db^− is a commonly used type 2 diabetes animal model. The compounds was dissolved in DMSO and mixed into food pellets. The animals were given ad libitum access to the pellets, beginning from 8 to 9 weeks of age for 10 weeks. […] The method for detecting mice hindlimb hypersensitivity is performed using Von Frey filaments. […] The difference is significant with P<0.05. The increase of mitochondrial reactive oxygen species (ROS) in the sciatic nerve of mice, which in turn leads to the increase of intracellular malondialdehyde (MDA), is the etiology of this type of neuropathic pain. The efficacy of compound to treat the root cause of the disease was evaluated by measurement of the levels of MDA and mitochondrial ROS from the sciatic nerves.

[1] = tested on: dIoN-CCI rat model of trigeminal neuropathic pain; assay: Trigeminal neuralgia model (dIoN-CCI), Von Frey mechanical threshold; conditions: dIoN-CCI rats
From the text: A common rat model of trigeminal neuralgia is a chronic compression injury model (CCI) caused by ligation of the infraorbital nerve (IoN). In the present study, an improved rat model of trigeminal neuropathic pain was used, in which CCI is induced by ligation of distal segment of IoN (dIoN). Wild type male Sprague-Dawley rats with body weight 250 to 260 grams underwent dIoN-CCI surgery experiments. The mechanical threshold of pain in rats without surgery experiments will exceed 6 grams. If the dIoN-CCI surgery is successful, it will reduce the pain threshold to less than 2 grams.
The mice were divided into the following 11 groups with 4 to 5 mice in each group. The formulation used for transdermal treatment is cream. […] The compound administration of each group starts on the third day after successful dIoN-CCI surgery. […] The method for detecting rat facial hypersensitivity is performed using Von Frey filaments. An analysis of variance (ANOVA) and Dunnett post hoc comparison test are used to compare the significance of the differences between different groups of data. The difference is significant with P<0.05.

SMILES	EC50 (PPARγ)	mRNA level of klotho gene in the brain of the mouse relative to vehicle control group (klotho gene)	fold induction at 10 mg/kg (klotho gene)	other results
CCc1ccc(CCCCc2ccc3c(c2)NC(=O)CC3)cc1 [ELB00702, 7-(4-(4-ethylphenyl)butyl)-3,4-dihydroquinolin-2(1H)-one]	< 6.4 µM and 3.1 µM	more than twice	> 5	–
CCc1ccc(CCCCc2ccc3c(c2)OCCC(=O)N3)cc1 [ELB00827, 8-(4-(4-ethylphenyl)butyl)-2,3-dihydrobenzo[b][1,4]oxazepin-4(5H)-one]	< 6.4 µM	more than twice	> 5	EC50 (klotho gene promoter): < 9.7 µM
CCc1ccc(CC/C=C/c2ccc3c(c2)NC(=O)CO3)cc1 [ELB00993, (E)-6-(4-(4-ethylphenyl)but-1-en-1-yl)-2H-benzo[b][1,4]oxazin-3(4H)-one]	< 6.4 µM	more than twice	> 5	–
CCc1ccc(CC/C=C/c2ccc3c(c2)C(=O)CCO3)cc1 [ELB001080, (E)-6-(4-(4-ethylphenyl)but-1-en-1-yl)chroman-4-one]	< 6.4 µM	–	–	number of errors in water maze on the third day (APP/PS1 transgenic mice): comparable to that of ELB00824; level of MDA in the sciatic nerve after 10 week treatment (db−/db− mice): reduced; level of mitochondrial ROS in the sciatic nerve after 10 week treatment (db−/db− mice): reduced; mechanical pain threshold after 10 week treatment (db−/db− mice): significantly improved
CCc1ccc(C/C=C/c2cccc(CC3NCC(=O)N3)c2)cc1 (centres unmarked) [ELB001090, (E)-2-(3-(3-(4-ethylphenyl)prop-1-en-1-yl)benzyl)imidazolidin-4-one]	< 6.4 µM and 3.9 µM	more than twice	–	EC50 (klotho gene promoter): < 9.7 µM
NCC1(CC(=O)O)CCCCC1 [gabapentin, reference compound]	–	–	–	side effect at the time of administration [1]: drowsiness; duration of the anti-allodynic effect ([1]; oral gabapentin group (1 mg/kg body weight)): 1 h
CC(C)C[C@H](CN)CC(=O)O [pregabalin, reference compound]	–	–	–	level of MDA in the sciatic nerve after 10 week treatment (db−/db− mice): significantly higher; level of mitochondrial ROS in the sciatic nerve after 10 week treatment (db−/db− mice): significantly higher; mechanical pain threshold after 10 week treatment (db−/db− mice): no difference
